Laboratory results: patent US20120122148A1, “Media For The Specific Detection Of Gram-Negative Bacteria Resistant To Beta-Lactam Antibiotics” (bioMerieux, SA, priority 2009, published 2012)

Tests used:
Format in all cases: cell-based
[1] = system: Proteus mirabilis 0105105 (HL case); test: Growth and enzymatic activity on ChromID CPS-based selective media; settings: cefpodoxime 4 mg/l (T), cefepime 0.25 mg/l (A), cefamandole 3 mg/l (B), cefuroxime 3 mg/l (C), each with 300 mg/l cloxacillin
Source text: (§1) Choice of strains: The inventors selected strains which make it possible to evaluate the activity of antibiotics with respect to Gram-negative species: enterobacteria and nonfermenting bacilli. In particular, ESBL-producing strains, high-level cephalosporinase-producing strains (HL Case) and strains without a particular resistance profile, termed wild-type strains, were used.
(§2) Preparation of media: The media tested were media composed of the peptone base of the ChromID CPS medium (bioMérieux ref 43541) to which were added, after autoclaving, in molten media, 300 mg/l cloxacillin and, for medium T: 4 mg/l cefpodoxime, for medium A: 0.25 mg/L of cefepime, for medium B: 3 mg/l of cefamandole and for medium C: 3 mg/l of cefuroxime.
(§3) Inoculation of media: The media are inoculated by carrying out a 3-quadrant streaking method using bacterial suspensions at 0.5 McF. The media are then incubated for 24 hours at 37° C.
(§4) Reading of media: The media are observed visually after 18 h and 24 hours of incubation, the growth density and also the colorations and coloration strengths are evaluated according to the scale below: • − or 0: absence of growth or of expression of enzymatic acitivity (i.e. no coloration) • +: weak growth, or enzymatic activity • ++: very strong growth density or strong enzymatic acitivity (very strong coloration)

[2] = system: Proteus mirabilis 9709068 (ESBL); test: as above; settings: cefpodoxime 4 mg/l (T), cefepime 0.25 mg/l (A), cefamandole 3 mg/l (B), cefuroxime 3 mg/l (C), each with 300 mg/l cloxacillin
Source text: as §1, §2, §3, §4

[3] = system: Serratia fonticola 8001047 (Wild-type); test: as above; settings: cefpodoxime 4 mg/l (T), cefepime 0.25 mg/l (A), cefamandole 3 mg/l (B), cefuroxime 3 mg/l (C), each with 300 mg/l cloxacillin
Source text: as §1, §2, §3, §4

[4] = system: Enterobacter spp 0503037 (Wild-type); test: as above; settings: cefpodoxime 4 mg/l (T), cefepime 0.25 mg/l (A), cefamandole 3 mg/l (B), cefuroxime 3 mg/l (C), each with 300 mg/l cloxacillin
Source text: as §1, §2, §3, §4

[5] = system: Morganella morganii 9904104 (HL case); test: as above; settings: cefpodoxime 4 mg/l (T), cefepime 0.25 mg/l (A), cefamandole 3 mg/l (B), cefuroxime 3 mg/l (C), each with 300 mg/l cloxacillin
Source text: as §1, §2, §3, §4

[6] = system: Klebsiella oxytoca 0105100 (HL case); test: as above; settings: cefpodoxime 4 mg/l (T), cefepime 0.25 mg/l (A), cefamandole 3 mg/l (B), cefuroxime 3 mg/l (C), each with 300 mg/l cloxacillin
Source text: as §1, §2, §3, §4

[7] = system: Proteus mirabilis 0105109 (HL case); test: as above; settings: cefpodoxime 4 mg/l (T), cefepime 0.25 mg/l (A), cefamandole 3 mg/l (B), cefuroxime 3 mg/l (C), each with 300 mg/l cloxacillin
Source text: as §1, §2, §3, §4

[8] = system: Klebsiella oxytoca 0502094 (ESBL); test: as above; set-up: key to the marks not given beside the values; settings: cefpodoxime 4 mg/l (T), cefepime 0.25 mg/l (A), cefamandole 3 mg/l (B), cefuroxime 3 mg/l (C), each with 300 mg/l cloxacillin
Source text: as §1, §2, §3, §4

[9] = system: Enterobacter aerogenes 0502112 (ESBL); test: as above; set-up: key to the marks not given beside the values; settings: cefpodoxime 4 mg/l (T), cefepime 0.25 mg/l (A), cefamandole 3 mg/l (B), cefuroxime 3 mg/l (C), each with 300 mg/l cloxacillin
Source text: as §1, §2, §3, §4

[10] = system: Enterobacter spp 9306069 (HL case); test: as above; set-up: key to the marks not given beside the values; settings: cefpodoxime 4 mg/l (T), cefepime 0.25 mg/l (A), cefamandole 3 mg/l (B), cefuroxime 3 mg/l (C), each with 300 mg/l cloxacillin
Source text: as §1, §2, §3, §4

[11] = system: Escherichia coli 0411146 (ESBL); test: as above; set-up: key to the marks not given beside the values; settings: cefpodoxime 4 mg/l (T), cefepime 0.25 mg/l (A), cefamandole 3 mg/l (B), cefuroxime 3 mg/l (C), each with 300 mg/l cloxacillin
Source text: as §1, §2, §3, §4

[12] = system: Escherichia coli 0505101 (ESBL); test: as above; set-up: Enz act.: key to the marks not given beside the values; settings: cefpodoxime 4 mg/l (T), cefepime 0.25 mg/l (A), cefamandole 3 mg/l (B), cefuroxime 3 mg/l (C), each with 300 mg/l cloxacillin
Source text: as §1, §2, §3, §4

[13] = system: ESBL-producing strains, strains producing an HL Case, wild-type taxon strains; test: Overall conclusion on the selective media over the strain panel
Source text: as §1, §2, §3, §4

Cn1nnnc1SCC1=C(C(=O)O)N2C(=O)[C@@H](NC(=O)[C@H](O)c3ccccc3)[C@H]2SC1 [Cefamandole, cefamandole]
−: Enz act. ([1]; 18 h at 37° C.) | Growth ([1]; 18 h at 37° C.) | Enz act. ([1]; 24 h at 37° C.) | Growth ([1]; 24 h at 37° C.) | Enz act. ([2]; 18 h at 37° C.) | Enz act. ([5]; 18 h at 37° C.) | Growth ([5]; 18 h at 37° C.) | Enz act. ([5]; 24 h at 37° C.) | Growth ([5]; 24 h at 37° C.) | Enz act. ([7]; 18 h at 37° C.) | Growth ([7]; 18 h at 37° C.) | Enz act. ([7]; 24 h at 37° C.) | Growth ([7]; 24 h at 37° C.)
+: Growth ([2]; 18 h at 37° C.) | Enz act. ([2]; 24 h at 37° C.) | Growth ([2]; 24 h at 37° C.) | Enz act. ([3]; 18 h at 37° C.) | Growth ([3]; 18 h at 37° C.) | Growth ([3]; 24 h at 37° C.) | Enz act. ([6]; 18 h at 37° C.) | Growth ([6]; 18 h at 37° C.) | Growth ([6]; 24 h at 37° C.)
++: Enz act. ([3]; 24 h at 37° C.) | Enz act. ([4]; 18 h at 37° C.) | Growth ([4]; 18 h at 37° C.) | Enz act. ([4]; 24 h at 37° C.) | Growth ([4]; 24 h at 37° C.) | Enz act. ([6]; 24 h at 37° C.) | Enz act. ([8]; 18 h at 37° C.) | Growth ([8]; 18 h at 37° C.) | Enz act. ([8]; 24 h at 37° C.) | Growth ([8]; 24 h at 37° C.) | Enz act. ([9]; 18 h at 37° C.) | Growth ([9]; 18 h at 37° C.) | Enz act. ([9]; 24 h at 37° C.) | Growth ([9]; 24 h at 37° C.) | Enz act. ([10]; 18 h at 37° C.) | Growth ([10]; 18 h at 37° C.) | Enz act. ([10]; 24 h at 37° C.) | Growth ([10]; 24 h at 37° C.) | Enz act. ([11]; 18 h at 37° C.) | Growth ([11]; 18 h at 37° C.) | Enz act. ([11]; 24 h at 37° C.) | Growth ([11]; 24 h at 37° C.) | Enz act. ([12]; 18 h at 37° C.) | Growth ([12]; 18 h at 37° C.) | Enz act. ([12]; 24 h at 37° C.) | Growth ([12]; 24 h at 37° C.)

CO/N=C(\C(=O)N[C@@H]1C(=O)N2C(C(=O)[O-])=C(C[N+]3(C)CCCC3)CS[C@H]12)c1csc(N)n1 [Cefepime, cefepime]
good discrimination: discrimination between the ESBL-producing strains, the strains producing an HL Case or the wild-type taxon strains ([13]; medium A: 0.25 mg/L cefepime with 300 mg/l cloxacillin)
+: Enz act. ([2]; 18 h at 37° C.) | Growth ([2]; 18 h at 37° C.) | Enz act. ([2]; 24 h at 37° C.) | Growth ([2]; 24 h at 37° C.)
best sensitivity and specificity: sensitivity and specificity of detection of the ESBL strains ([13]; compared with cefpodoxime, cefamandole, cefuroxime media)
++: Enz act. ([8]; 18 h at 37° C.) | Growth ([8]; 18 h at 37° C.) | Enz act. ([8]; 24 h at 37° C.) | Growth ([8]; 24 h at 37° C.) | Enz act. ([9]; 18 h at 37° C.) | Growth ([9]; 18 h at 37° C.) | Enz act. ([9]; 24 h at 37° C.) | Growth ([9]; 24 h at 37° C.) | Enz act. ([10]; 18 h at 37° C.) | Growth ([10]; 18 h at 37° C.) | Enz act. ([10]; 24 h at 37° C.) | Growth ([10]; 24 h at 37° C.) | Enz act. ([11]; 18 h at 37° C.) | Growth ([11]; 18 h at 37° C.) | Enz act. ([11]; 24 h at 37° C.) | Growth ([11]; 24 h at 37° C.) | Enz act. ([12]; 18 h at 37° C.) | Growth ([12]; 18 h at 37° C.) | Enz act. ([12]; 24 h at 37° C.) | Growth ([12]; 24 h at 37° C.)
−: Enz act. ([1]; 18 h at 37° C.) | Growth ([1]; 18 h at 37° C.) | Enz act. ([1]; 24 h at 37° C.) | Growth ([1]; 24 h at 37° C.) | Enz act. ([3]; 18 h at 37° C.) | Growth ([3]; 18 h at 37° C.) | Enz act. ([3]; 24 h at 37° C.) | Growth ([3]; 24 h at 37° C.) | Enz act. ([4]; 18 h at 37° C.) | Growth ([4]; 18 h at 37° C.) | Enz act. ([4]; 24 h at 37° C.) | Growth ([4]; 24 h at 37° C.) | Enz act. ([5]; 18 h at 37° C.) | Growth ([5]; 18 h at 37° C.) | Enz act. ([5]; 24 h at 37° C.) | Growth ([5]; 24 h at 37° C.) | Enz act. ([6]; 18 h at 37° C.) | Growth ([6]; 18 h at 37° C.) | Enz act. ([6]; 24 h at 37° C.) | Growth ([6]; 24 h at 37° C.) | Enz act. ([7]; 18 h at 37° C.) | Growth ([7]; 18 h at 37° C.) | Enz act. ([7]; 24 h at 37° C.) | Growth ([7]; 24 h at 37° C.)
